{"source": "patent US4939177A", "about": "“Use of avarol for the control of AIDS and ARC” (Merz + Co. GmbH & Co., priority 1986, dated 1990)", "key": {"[1]": {"test_system": "L5178y mouse lymphoma cells", "assay": "L5178y cell growth", "type": "cell-based", "settings": "72 hours", "method": "mouse lymphoma cells were grown in roller tube cultures in Eagle's minimum essential medium, supplemented with 10% horse serum (Muller et al., Cancer Res. 39: 1102-1107; 1979 and Muller et al. Cancer Res. 45: 4822-4826; 1985). […] The cell growth was determined by cell count with a computer supported cell-counter (128-channel counter; Cytocomp, system Michaelis: BIOTRON-Medizinelektronik, Mainz; West Germany). The ED50 (±SD) was estimated by logit regression (L. Sachs, […], Springer-Verlag, Berlin 1984). The mathematical evaluation of the fractional inhibitory concentration indices (FIC indices) of Avarol/Avarone-DDC combinations was performed according to published equations and experimental conditions (Muller et al., Cancer Lett. 1: 127-132; 1976; and Phillips et al., Antimicrob. Agents Chemother. 9: 736-740, 1976). […] In this set of experiments, […] cells were incubated with Avarol in the absence or presence of the established SODase inhibitor DDC."}, "[2]": {"assay": "Organ distribution of tritium labelled avarol in rats", "type": "in vivo, rat", "settings": "for Concentration of Avarol, Brain / Concentration of Avarol, Heart / Concentration of Avarol, Kidney / Concentration of Avarol, Liver / Concentration of Avarol, Skin / Concentration of Avarol, Spleen / Concentration of Avarol, Testes: rat, 24 hours"}, "[3]": {"test_system": "DTH to sheep red blood cells (SRBC) in NMRI mice", "assay": "Delayed-type hypersensitivity to sheep red blood cells", "type": "in vivo, mouse", "method": "DTH was produced according to the method of Lagrange et al. (J. Exp. Med. 139: 528-542; 1974) and Liew (Eur. J. Immunol. 7, 714-718; 1977). Male NMRI mice (20-23 g, 10 animals/group) were immunized with 10^8 SRBC/40 μl into one foot pad (day 0). Four days later 10^9 SRBC/40 μl were injected into the other foot pad. After 24 hours, paw size was measured with a dial gauge caliper Odi-Test OOT (H. C. Kroeplin, Schluchtern, Germany). Avarol (in 0.15% [w/v] methylcellulose) was administered daily i.p. either from day -2 to +1 or from day +2 to +4. The level of DTH was expressed as foot pad increase, determined after 24 hrs; and it is given in mm. Non-treated groups were injected i.p. with methylcellulose only. Treated groups were compared with the controls using the U-test of Wilcoxon et al. (Sachs, L. Angewandte Statistik, Springer-Verlag, Berlin; 1984)."}, "[4]": {"test_system": "Arthus reaction in Sprague-Dawley rats", "assay": "Antibody mediated hypersensitivity (modified active Arthus reaction, ovalbumin)", "type": "in vivo, rat"}, "[5]": {"test_system": "human peripheral blood lymphocytes (IgM)", "assay": "In vitro IgM production by peripheral blood lymphocytes", "type": "cell-based", "method": "Human peripheral blood lymphocytes (6×10^5 cells/ml) were cultured in the presence of 0 to 2 μg/ml of pokeweed mitogen (PWM; Sigma no. 9379) in Dulbeccos minimum essential medium, supplemented with 20% fetal calf serum, for 6 days. The assays were performed in a final volume of 200 μl in microtiter plates (Dynatech; M129B) (Muller et al., Eur. J. Cancer Clin. Oncol. 22: 473-476; 1986). Avarol in a concentration range of 0-3 μg/ml was added at time 0 or 3 days after starting the culture. The supernatants were harvested and assayed for human immunoglobulin content.\nThe culture supernatants were assayed by the enzyme-linked immunosorbent assay (Houtman et al., Clin. Exp. Immunol. 62: 696-704; 1985) using anti-human IgG (Dakopatts, Hamburg; P214) and anti-human IgM (Dakopatts; P215). These antibodies were conjugated to peroxidase. Bound enzyme activity was measured using 2,2'-azino-bis(3-ethylbenzthiazolinesulfonic acid) (Sigma no. A-1888) as substrate."}, "[6]": {"test_system": "DTH to oxazolone in NMRI mice", "assay": "Contact allergy to oxazolone", "type": "in vivo, mouse", "settings": "3-30 mg/kg i.p., day -1 to +2 or day +6 to +8, P>0.05", "method": "Allergic contact dermatitis against oxazolone was produced according to the method of Asherson and Ptak (Immunol. 15: 405-416; 1968) as well as those of Bure and Degrand (Agents and Actions 9: 534; 1979). Male NMRI mice (20-22 g; 10/group) were sensitized with 100 μl of a 2% oxazolone in acetone solution onto the shaved abdomen (day 0). Animals were treated with avarol (i.p.) daily from day -1 to +2 or from day +6 to +8; control group was treated with deoxymethasone (Casella-Hoechst) as a standard per os at a daily dose of 30 mg/kg for the same period of time as for avarol. Seven days after sensitization 10 μl of a 3% oxazolane (this concentration was previously found to give more reproducible results than the lower 2% concentration) solution were topically applied onto the inner side of one ear, whereas the other ear received only acetone. […] Treated groups were compared with controls using the U-test."}, "[7]": {"assay": "Chemical nature and biological activity of radioactive product in rat blood (HPLC; L5178y system)", "type": "in vivo", "settings": "iv, after circulation in the body for 22 hours, read-out: modification to a biologically-inactive form", "method": "These concentrations were determined on the basis of radioactivity. Moreover, the chemical nature of the radioactive product was identified by high-pressure liquid chromatography and found to consist of over 90% of Avarol. In addition, the biological activity of the compound in the blood was determined after extraction with ethyl acetate and estimated in the L5178y cell system in vitro (Muller, W.E.G. et al.; Comp. Biochem. Physiol. 80C, 47-52; 1985). Using this system, the biological activity of the compound, present in the blood, was determined and converted on a gram basis. Using this approach the concentration in the blood was only 5-15% lower than that determined on the basis of radioactivity."}}, "note": "Like-named read-outs stand apart in the source and are kept apart here.", "data": [{"smiles": "CC1=CCC[C@H]2[C@](C)(Cc3cc(O)ccc3O)[C@@H](C)CC[C@]12C", "note": "[Avarol, 2-[(1R)-1,2,3,4,4a,7,8,8aα-octahydro-1β,2β,4aβ,5-tetramethyl-1-naphthylmethyl]-1,4-benzenediol]", "values": [{"measurement": "IC50", "setting": "[1]; DDC 1.46 μM, read-out: ED50 with coaddition of DDC", "result": "270 ± 40", "unit": "nM"}, {"measurement": "IC50", "setting": "[1]; DDC 1.71 μM, read-out: ED50 with coaddition of DDC", "result": "108 ± 15", "unit": "nM"}, {"measurement": "IC50", "setting": "[1]; Mus musculus, L5178Y, cell growth, absence of DDC, read-out: ED50 (the source's name)", "result": "940 ± 140", "unit": "nM"}, {"measurement": "Concentration of Avarol, Brain", "setting": "[2]; i.v. 2 mg/kg", "result": "0.45 microgram of Avarol per gram o"}, {"measurement": "Concentration of Avarol, Heart", "setting": "[2]; i.v. 2 mg/kg", "result": "0.7 microgram of Avarol per gram o"}, {"measurement": "Concentration of Avarol, Kidney", "setting": "[2]; i.v. 2 mg/kg", "result": "1.6 microgram of Avarol per gram o"}, {"measurement": "Concentration of Avarol, Liver", "setting": "[2]; i.v. 2 mg/kg", "result": "6.4 microgram of Avarol per gram o"}, {"measurement": "Concentration of Avarol, Skin", "setting": "[2]; i.v. 2 mg/kg", "result": "0.4 microgram of Avarol per gram o"}, {"measurement": "Concentration of Avarol, Spleen", "setting": "[2]; i.v. 2 mg/kg", "result": "1.7 microgram of Avarol per gram o"}, {"measurement": "Concentration of Avarol, Testes", "setting": "[2]; i.v. 2 mg/kg", "result": "0.48 microgram of Avarol per gram o"}, {"measurement": "Concentration of Avarol, Brain", "setting": "[2]; i.v. 10 mg/kg", "result": "0.58 microgram of Avarol per gram o"}, {"measurement": "Concentration of Avarol, Heart", "setting": "[2]; i.v. 10 mg/kg", "result": "0.9 microgram of Avarol per gram o"}, {"measurement": "Concentration of Avarol, Kidney", "setting": "[2]; i.v. 10 mg/kg", "result": "2.2 microgram of Avarol per gram o"}, {"measurement": "Concentration of Avarol, Liver", "setting": "[2]; i.v. 10 mg/kg", "result": "6.9 microgram of Avarol per gram o"}, {"measurement": "Concentration of Avarol, Skin", "setting": "[2]; i.v. 10 mg/kg", "result": "0.6 microgram of Avarol per gram o"}, {"measurement": "Concentration of Avarol, Spleen", "setting": "[2]; i.v. 10 mg/kg", "result": "1.9 microgram of Avarol per gram o"}, {"measurement": "Concentration of Avarol, Testes", "setting": "[2]; i.v. 10 mg/kg", "result": "0.63 microgram of Avarol per gram o"}, {"measurement": "Concentration of Avarol, Brain", "setting": "[2]; i.v. 20 mg/kg", "result": "0.64 microgram of Avarol per gram o"}, {"measurement": "Concentration of Avarol, Heart", "setting": "[2]; i.v. 20 mg/kg", "result": "0.9 microgram of Avarol per gram o"}, {"measurement": "Concentration of Avarol, Kidney", "setting": "[2]; i.v. 20 mg/kg", "result": "2.4 microgram of Avarol per gram o"}, {"measurement": "Concentration of Avarol, Liver", "setting": "[2]; i.v. 20 mg/kg", "result": "7.4 microgram of Avarol per gram o"}, {"measurement": "Concentration of Avarol, Skin", "setting": "[2]; i.v. 20 mg/kg", "result": "0.6 microgram of Avarol per gram o"}, {"measurement": "Concentration of Avarol, Spleen", "setting": "[2]; i.v. 20 mg/kg", "result": "2.2 microgram of Avarol per gram o"}, {"measurement": "Concentration of Avarol, Testes", "setting": "[2]; i.v. 20 mg/kg", "result": "0.67 microgram of Avarol per gram o"}, {"measurement": "blood-brain barrier penetration", "setting": "[2]; rats, i.v.", "result": "penetrates the blood-brain barrier"}, {"measurement": "DTH to SRBC, immunosuppressive influence", "setting": "[3]; day +2 to +4, doses higher than 10 mg/kg i.p.", "result": "weak but significant immunosuppressive effect"}, {"measurement": "DTH to SRBC, immunosuppressive influence", "setting": "[3]; day -2 to +1, up to daily doses of 30 mg/kg i.p.", "result": "no significant immunosuppressive influence"}, {"measurement": "Arthus reaction, in words", "setting": "[4]; 30 mg/kg, 24 hours and 30 minutes before challenge, P>0.05", "result": "weak suppression of the reaction"}, {"measurement": "Arthus reaction, in words", "setting": "[4]; 3-30 mg/kg i.p., day -1 to +2, day +18 to +21, or immediately before challenge", "result": "no significant suppression of the Arthus reaction"}, {"measurement": "IgM production, in words", "setting": "[5]; 0.3 or 1 μg/ml, irrespective of PWM", "result": "significant increase"}, {"measurement": "IgM synthesized", "setting": "[5]; avarol 0.3 μg/ml, PWM +, 0 to 6 days", "result": "20.4 ± 5.1", "unit": "µg/mL"}, {"measurement": "IgM synthesized", "setting": "[5]; avarol 0.3 μg/ml, PWM +, 3 to 6 days", "result": "24.7 ± 5.6", "unit": "µg/mL"}, {"measurement": "IgM synthesized", "setting": "[5]; avarol 0.3 μg/ml, PWM -, 0 to 6 days", "result": "14.7 ± 3.4", "unit": "µg/mL"}, {"measurement": "IgM synthesized", "setting": "[5]; avarol 0.3 μg/ml, PWM -, 3 to 6 days", "result": "14.2 ± 3.3", "unit": "µg/mL"}, {"measurement": "IgM synthesized", "setting": "[5]; avarol 1.0 μg/ml, PWM +, 0 to 6 days", "result": "23.5 ± 5.5", "unit": "µg/mL"}, {"measurement": "IgM synthesized", "setting": "[5]; avarol 1.0 μg/ml, PWM +, 3 to 6 days", "result": "25.6 ± 5.9", "unit": "µg/mL"}, {"measurement": "IgM synthesized", "setting": "[5]; avarol 1.0 μg/ml, PWM -, 0 to 6 days", "result": "15.6 ± 4.0", "unit": "µg/mL"}, {"measurement": "IgM synthesized", "setting": "[5]; avarol 1.0 μg/ml, PWM -, 3 to 6 days", "result": "15.9 ± 4.2", "unit": "µg/mL"}, {"measurement": "IgM synthesized", "setting": "[5]; avarol 3.0 μg/ml, PWM +, 0 to 6 days", "result": "10.5 ± 2.6", "unit": "µg/mL"}, {"measurement": "IgM synthesized", "setting": "[5]; avarol 3.0 μg/ml, PWM +, 3 to 6 days", "result": "11.7 ± 2.9", "unit": "µg/mL"}, {"measurement": "IgM synthesized", "setting": "[5]; avarol 3.0 μg/ml, PWM -, 0 to 6 days", "result": "8.1 ± 1.8", "unit": "µg/mL"}, {"measurement": "IgM synthesized", "setting": "[5]; avarol 3.0 μg/ml, PWM -, 3 to 6 days", "result": "8.4 ± 1.9", "unit": "µg/mL"}, {"measurement": "IgM production, in words", "setting": "[5]; higher avarol concentrations", "result": "turned to normal values"}, {"measurement": "influence on DTH to oxazolone, in words", "setting": "[6]", "result": "did not influence significantly"}, {"measurement": "metabolised at 22 h", "setting": "[7]", "result": "≤ 15", "unit": "%"}]}]}
